Results on eight compounds are retold here after patent US12528795B2, “Crystal form of multi-substituted benzene ring compound maleate, and preparation method therefor and use thereof” (EVOPOINT BIOSCIENCES CO., LTD., priority 2020, dated 2026).

Format in all cases: physicochemical
The nature of data set [1]: Suspension competition experiments on crystal form A and hydrate crystal forms C and D of maleate at different water activities (XRPD). Conditions: room temperature, 3.5 h.
Assay in data set [2]: as above
As to conditions: for Result (crystal form by XRPD after suspension competition): H2O. Here is the method:
The mixtures were stirred at room temperature for 24 h, and then filtered to obtain saturated solutions. About 10 mg of a crystal form A/C/D of maleate was added to each saturated solution, the mixtures were suspended and stirred at room temperature for 2 days, and then subjected to the XRPD test. Two 5-mL vials were taken, water (2 mL) was added to each vial, and excessive crystal form B of maleate was added. The mixtures were stirred at 50° C./80° C. for 20 h/2 h, and then filtered to obtain saturated solutions. About 10 mg of the crystal form A/C/D of maleate was added to each saturated solution, and the mixtures were suspended and stirred at 50° C./80° C. for 1 day/3.5 h, and then subjected to the XRPD test.

Data set [3] in a line: Crystal form transformation on heating, cooling or drying. How it is done:
The obtained sample was determined to be a crystal form E of maleate of the multi-substituted benzene ring compound of formula II by X-ray powder diffraction.

A short description of data set [4]: Hygroscopicity by dynamic vapor sorption (DVS). Conditions: for Crystal form after DVS test: XRPD after DVS 0% RH-95% RH-0% RH, 25° C. Here is the method: Dynamic vapor sorption (DVS) curves were acquired on a DVS Intrinsic in Surface Measurement Systems (SMS). The relative humidity at 25° C. was corrected with the deliquescence points of LiCl, Mg(NO3)2 and KCl.
After the mass change rate over time was less than 0.002%, the moisture absorption characteristics of the samples when the humidity changed from 0% RH to 95% RH were tested, as well as the moisture desorption characteristics of the samples when the humidity changed from 0% RH to 95% RH to 0% RH were tested, and the humidity change step was 10% RH. The value of the mass change rate dm/dt less than 0.002% was considered as balance equilibration, the mass change rate within 10 min less than 0.002%/min was considered as the equilibration standard during the testing process, and the maximum equilibration time was 3 h. The isothermal moisture sorption/desorption characteristics under this test condition were determined and XRPD test was performed on the samples after the DVS test.

Data set [5] can be described thus: Dynamic solubility in SGF, FaSSIF, FeSSIF and water at 37° C. Conditions: thermodynamic from solid, sampling at 1, 2, 4 and 24 h, time point of the value not stated. How it is done: (§1) The purity and solubility of the samples in the test were tested by Waters ultra performance liquid chromatograph, and the conditions are shown in Table 6:
In the test, 45 mg of the solid and 4.5 mL of the vehicle were mixed in a 5 mL centrifuge tube, then the centrifuge tube was sealed and fixed on a rotating disk at a rotating speed of 40 rpm, and the rotating disk was placed in a 37° C. incubator. Sampling was performed at four time points of 1, 2, 4 and 24 h on equilibration, followed by filtration. The filtrate was separated at each sampling time point to test the concentration and pH, and the solid was tested for crystal form.

Data set [6] in a line: Suspension competition experiments on anhydrous crystal forms A and B of maleate (XRPD). Conditions: for Results (crystal form by XRPD after suspension competition): 3 days. Here is the method:
Suspention competition experiments on anhydrous crystal forms A and B of maleate were conducted as follows: Four 5-mL vials were taken, IPA (2 mL) and IPAc (2 mL) were added to each vial, and excessive crystal form B of maleate was added. The mixtures were stirred at room temperature/50° C. for 24 h, and then filtered to obtain saturated solutions of the maleate in IPA and IPAc. About 10 mg of a crystal form A/B of maleate was added to each saturated solution, the mixtures were suspended and stirred at room temperature/50° C. for 3 days, and then subjected to the XRPD test.

Data set [7] is described as follows: Fluidity (angle of repose of a single API). Conditions: D90 controlled at 200 μm.
Data set [8] is described as follows: Physical and chemical stability in open vials (HPLC purity, XRPD). Conditions: for Crystal form change: XRPD; for Stability sample purity (area percentage): initial purity 98.86. How it is done:
as §1
The solid samples placed under different conditions were tested for purity by HPLC to assess the chemical stability and for crystal form by XRPD to assess the physical stability.

[9] abbreviates: FaSSIF, FaSSIF, read-out: Dynamic solubility in FaSSIF.
The mark [10] stands for this setting: FeSSIF, FeSSIF, read-out: Dynamic solubility in FeSSIF.
Setting [11] is: SGF, simulated gastric fluid, SGF, read-out: Dynamic solubility in SGF.
[12] abbreviates: water, water, read-out: Dynamic solubility in water.
The mark [13] stands for this setting: open vial, 25° C./60% RH, one week.
Setting [14] is: open vial, 40° C./75% RH, one week.

Structures are written as SMILES. In brackets after ≈: the same amount, converted by molar mass. Entries after “also recorded” stand apart in the source; their conditions may differ. Like-named read-outs stand apart in the source and are kept apart here.

On to `CCN(c1cc(O[C@H]2C[C@H](N3CCCCC3)C2)cc(C(=O)NCc2c(C)cc(C)[nH]c2=O)c1C)C1CCOCC1.O=C(O)/C=C\C(=O)O` [Crystal form A/C/D of maleate], for which the “Result (crystal form by XRPD after suspension competition)” value in data set [1] (EtOH) is “Crystal form A of maleate”; in data set [1] (EtOH/H2O (70:30, aw = 0.8)) it was “Crystal form C of maleate”; in data set [1] (EtOH/H2O (82:18, aw = 0.6)), “Crystal form C of maleate”; in data set [1] (EtOH/H2O (91:9, aw = 0.4)), “Crystal form C of maleate”; in data set [1] (EtOH/H2O (96:4, aw = 0.2)), “Crystal form A of maleate”; in data set [1] (H2O), “Crystal form C of maleate”. In addition, the “Result (crystal form by XRPD after suspension competition)” value in data set [2] (50° C., 1 day) was “Crystal form C of maleate”; in data set [2] (80° C., 3.5 h), “Crystal form C of maleate”.
`CCN(c1cc(O[C@H]2C[C@H](N3CCCCC3)C2)cc(C(=O)NCc2c(C)cc(C)[nH]c2=O)c1C)C1CCOCC1.O=C(O)/C=C\C(=O)O` [Crystal form C of maleate]: the “Crystal form transformation after drying” value in data set [3] (dried at 170° C.) is reported as “transformed into the crystal form A”. Moreover, the “Crystal form transformation by suspending and stirring” value in data set [2] (ethanol solution with a water activity of 0.2 or absolute ethanol, room temperature) is reported as “transformed into the crystal form A”.
For the compound `CCN(c1cc(O[C@H]2C[C@H](N3CCCCC3)C2)cc(C(=O)NCc2c(C)cc(C)[nH]c2=O)c1C)C1CCOCC1` [Free crystal form D], in data set [4], the “DVS vapor sorption (25° C./80% RH, %)” value was found to be 1.3%. Besides, the solubility in data set [5] (setting [9]) is 420 µg/mL (≈ 763 µM); in data set [5] (setting [10]), greater than 7350 µg/mL; in data set [5] (setting [11]), 6980 µg/mL (≈ 12700 µM); in data set [5] (setting [12]) it was 16 µg/mL (≈ 29.1 µM).
Regarding `CCN(c1cc(O[C@H]2C[C@H](N3CCCCC3)C2)cc(C(=O)NCc2c(C)cc(C)[nH]c2=O)c1C)C1CCOCC1.O=C(O)/C=C\C(=O)O` [Crystal form A/B of maleate], the “Results (crystal form by XRPD after suspension competition)” value in data set [6] (IPA, 50° C.) is given as “Crystal form A of maleate”; in data set [6] (IPA, room temperature) it was “Crystal form A of maleate”; in data set [6] (IPAc, 50° C.) it was “Crystal form A of maleate”; in data set [6] (IPAc, room temperature) it was “Crystal form A of maleate”.
For the compound `CCN(c1cc(O[C@H]2C[C@H](N3CCCCC3)C2)cc(C(=O)NCc2c(C)cc(C)[nH]c2=O)c1C)C1CCOCC1.O=C(O)/C=C\C(=O)O` [Crystal form E of maleate], the “Crystal form transformation after cooling to room temperature” value in data set [3] (form obtained only at high temperature, then cooled to room temperature) was “retransformed into the crystal form A of maleate”.
For `Br.CCN(c1cc(O[C@H]2C[C@H](N3CCCCC3)C2)cc(C(=O)NCc2c(C)cc(C)[nH]c2=O)c1C)C1CCOCC1` [Crystal form A of hydrobromide], in data set [4], the “DVS vapor sorption (25° C./80% RH, %)” value turned out to be 5.2%. For the same compound, the solubility stood at 1390 µg/mL in data set [5] (setting [9]), 5330 µg/mL in data set [5] (setting [10]) and 4260 µg/mL in data set [5] (setting [12]).
`CCN(c1cc(O[C@H]2C[C@H](N3CCCCC3)C2)cc(C(=O)NCc2c(C)cc(C)[nH]c2=O)c1C)C1CCOCC1.O=C(O)CCC(=O)O` [Crystal form A of succinate]: in data set [4], the “DVS vapor sorption (25° C./80% RH, %)” value amounted to 2.1%. Also, the solubility in data set [5] (setting [9]) is 5390 µg/mL; in data set [5] (setting [10]), greater than 7350 µg/mL; in data set [5] (setting [11]), no less than 6000 µg/mL; in data set [5] (setting [12]), greater than 8440 µg/mL.
For `CCN(c1cc(O[C@H]2C[C@H](N3CCCCC3)C2)cc(C(=O)NCc2c(C)cc(C)[nH]c2=O)c1C)C1CCOCC1.O=C(O)/C=C\C(=O)O` [Crystal form A of maleate], the “DVS vapor sorption (25° C./80% RH, %)” value in data set [4] came out at 0.4%. For the same compound, the “Crystal form after DVS test” value in data set [4] is reported as “Unchanged”; in data set [4] (listed as crystal form A of maleate) it was “crystal form transformation did not occur”. Further, the “Relative stability of crystal forms A and B of maleate” value in data set [6] (room temperature/50° C.) is recorded as “more stable than the crystal form B”. Also, the solubility was 4150 µg/mL in data set [5] (setting [9]), greater than 7350 µg/mL in data set [5] (setting [10]), no less than 6000 µg/mL in data set [5] (setting [11]) and 6990 µg/mL in data set [5] (setting [12]). In addition, the “Angle of repose of a single API” value in data set [7] is on record as “about 40 °”; in data set [7] (as printed in b231) it was “about 400”. In addition, the “Initial purity (area percentage)” value in data set [8] (before storage) was 98.86 area percentage. In addition, the Crystal form change result in data set [8] (setting [13]) is given as “Unchanged”; in data set [8] (setting [14]), “Unchanged”; in data set [8] (open vial, 60° C., 24 h) it was “Unchanged”. Further, the “Stability sample purity (area percentage)” value in data set [8] (setting [13]) amounted to 98.79 area percentage; in data set [8] (setting [14]) it was 98.79 area percentage; in data set [8] (open vial, 60° C., 24 h) it was 98.79 area percentage. Further, the “Physical and chemical stability under three test conditions” value in data set [8] (open vial, 60° C. one day, 25° C./60% RH and 40° C./75% RH one week) was “did not undergo crystal form transformation and chemical purity decrease; also recorded: no crystal form transformation and chemical purity decrease”. Further, the “Stability ranking among the 5 crystal forms of maleate” value in data set [2] (conclusion from the examples and suspension competition experiments) is “most stable among the 5 crystal forms of maleate”.
